Measured values published in ChEMBL document CHEMBL5104131, “Pyrimidine-conjugated fluoroquinolones as new potential broad-spectrum antibacterial agents” (Bioorg Med Chem Lett, 2022).
In brackets after ≈: the same amount, converted by molar mass. Activity calls are given as the source filed them. No cut-off for these calls is given here.

What was measured:
[1] = tested on: Staphylococcus aureus; assay: Antibacterial activity against methicillin-resistant Staphylococcus aureus N315 assessed as bacterial growth inhibition by serial dilution method; format: functional
[2] = tested on: Enterococcus faecalis; assay: Antibacterial activity against Enterococcus faecalis assessed as bacterial growth inhibition by serial dilution method; format: functional
[3] = tested on: Staphylococcus aureus; assay: Antibacterial activity against Staphylococcus aureus assessed as bacterial growth inhibition by serial dilution method; format: functional
[4] = tested on: Staphylococcus aureus; assay: Antibacterial activity against Staphylococcus aureus ATCC 25923 assessed as bacterial growth inhibition by serial dilution method; format: functional
[5] = tested on: Staphylococcus aureus; assay: Antibacterial activity against Staphylococcus aureus ATCC 29213 assessed as bacterial growth inhibition by serial dilution method; format: functional
[6] = tested on: Klebsiella pneumoniae; assay: Antibacterial activity against Klebsiella pneumoniae assessed as bacterial growth inhibition by serial dilution method; format: functional
[7] = tested on: Escherichia coli; assay: Antibacterial activity against Escherichia coli assessed as bacterial growth inhibition by serial dilution method; format: functional
[8] = tested on: Escherichia coli; assay: Antibacterial activity against Escherichia coli ATCC 25922 assessed as bacterial growth inhibition by serial dilution method; format: functional
[9] = tested on: Pseudomonas aeruginosa; assay: Antibacterial activity against Pseudomonas aeruginosa assessed as bacterial growth inhibition by serial dilution method; format: functional
[10] = tested on: Pseudomonas aeruginosa; assay: Antibacterial activity against Pseudomonas aeruginosa ATCC 27853 assessed as bacterial growth inhibition by serial dilution method; format: functional
[11] = tested on: Acinetobacter baumannii; assay: Antibacterial activity against Acinetobacter baumannii assessed as bacterial growth inhibition by serial dilution method; format: functional
[12] = tested on: Enterococcus faecalis; assay: Potency index, ratio of norfloxacin MIC to test compound MIC for antibacterial activity against Enterococcus faecalis assessed as bacterial growth inhibition by serial dilution method; format: functional
[13] = tested on: Enterococcus faecalis; assay: Potency index, ratio of ciprofloxacin MIC to test compound MIC for antibacterial activity against Enterococcus faecalis assessed as bacterial growth inhibition by serial dilution method; format: functional
[14] = tested on: Staphylococcus aureus; assay: Potency index, ratio of norfloxacin MIC to test compound MIC for antibacterial activity against Staphylococcus aureus ATCC 25923 assessed as bacterial growth inhibition by serial dilution method; format: functional
[15] = tested on: Staphylococcus aureus; assay: Potency index, ratio of norfloxacin MIC to test compound MIC for antibacterial activity against Staphylococcus aureus ATCC 29213 assessed as bacterial growth inhibition by serial dilution method; format: functional
[16] = tested on: Aspergillus fumigatus; assay: Antifungal activity against Aspergillus fumigatus assessed as inhibition of fungal growth; format: functional
[17] = Cytotoxicity against human HaCaT cells assessed as cell viability at 12.5 ug/ml by CCK-8 assay relative to control; format: toxicity, cell-based; settings: at 12.5 µg/mL, read-out: Activity
[18] = Cytotoxicity against human HaCaT cells assessed as cell viability at 50 ug/ml by CCK-8 assay relative to control; format: toxicity, cell-based; settings: at 50 µg/mL, read-out: Activity
[19] = tested on: Enterococcus faecalis; assay: Bactericidal activity against Enterococcus faecalis assessed as log reduction in bacterial colony count at 1 times MIC measured after 6 hrs; format: functional
[20] = tested on: Enterococcus faecalis; assay: Bactericidal activity against Enterococcus faecalis assessed as log reduction in bacterial colony count at 4 times MIC measured after 6 hrs; format: functional
[21] = tested on: Enterococcus faecalis; assay: Inhibition of biofilm formation in Enterococcus faecalis at 2 ug/ml incubated for 24 hrs by crystal violet staining based analysis relative to control; format: functional
[22] = Induction of intracellular ROS accumulation in Enterococcus faecalis assessed as fold increase in fluorescence intensity at 8 times MIC by DCFH-DA dye based fluorescence assay; format: functional
[23] = tested on: Calf thymus DNA; assay: Binding affinity to calf thymus DNA assessed as red shift in absorption peak by UV-Vis spectrophotometric analysis; settings: Bos taurus
[24] = tested on: Calf thymus DNA; assay: Binding affinity to calf thymus DNA assessed as DNA-compound complex formation by measuring hyperchromicity by UV-Vis spectrophotometric analysis; format: tissue-based; settings: Bos taurus
[25] = tested on: Calf thymus DNA; assay: Binding affinity to calf thymus DNA assessed as binding constant by UV-Vis spectrophotometric analysis; settings: Bos taurus
[26] = tested on: Calf thymus DNA; assay: Binding affinity to calf thymus DNA assessed as reduction in acridine orange-DNA complex formation by competitive binding assay; settings: Bos taurus
[27] = tested on: Candida tropicalis; assay: Antifungal activity against Candida tropicalis assessed as inhibition of fungal growth; format: functional
[28] = tested on: Candida parapsilosis; assay: Antifungal activity against Candida parapsilosis ATCC 22019 assessed as inhibition of fungal growth; format: functional; settings: Lodderomyces parapsilosis
[29] = tested on: Staphylococcus aureus; assay: Potency index, ratio of norfloxacin MIC to test compound MIC for antibacterial activity against methicillin-resistant Staphylococcus aureus N315 assessed as bacterial growth inhibition by serial dilution method; format: functional
[30] = tested on: Staphylococcus aureus; assay: Potency index, ratio of ciprofloxacin MIC to test compound MIC for antibacterial activity against methicillin-resistant Staphylococcus aureus N315 assessed as bacterial growth inhibition by serial dilution method; format: functional

| SMILES | MIC [1] [µg/mL] | MIC [2] [µg/mL] | MIC [3] [µg/mL] | MIC [4] [µg/mL] | MIC [5] [µg/mL] | MIC [6] [µg/mL] | MIC [7] [µg/mL] | MIC [8] [µg/mL] | MIC [9] [µg/mL] | MIC [10] [µg/mL] | MIC [11] [µg/mL] | MIC [16] [µg/mL] | other results |
| --- | --- | --- | --- | --- | --- | --- | --- | --- | --- | --- | --- | --- | --- |
| CCc1cnc(N2CCN(c3cc4c(cc3F)c(=O)c(C(=O)O)cn4CC)CC2)nc1 | 2 (≈ 4.7 µM) | 2 (≈ 4.7 µM) | 8 (≈ 18.8 µM) | 2 (≈ 4.7 µM) | 64 (≈ 150 µM) | 2 (≈ 4.7 µM) | 16 (≈ 37.6 µM) | 1 (≈ 2.35 µM) | 2 (≈ 4.7 µM) | 128 (≈ 301 µM) | 128 (≈ 301 µM) | – | – |
| CCn1cc(C(=O)O)c(=O)c2cc(F)c(N3CCN(c4nccc(N)n4)CC3)cc21 | 1 (≈ 2.42 µM) | 0.25 (≈ 0.606 µM) | 1 (≈ 2.42 µM) | 0.5 (≈ 1.21 µM) | 0.5 (≈ 1.21 µM) | 0.5 (≈ 1.21 µM) | 4 (≈ 9.7 µM) | 16 (≈ 38.8 µM) | 0.25 (≈ 0.606 µM) | 0.5 (≈ 1.21 µM) | 4 (≈ 9.7 µM) | 2 (≈ 4.85 µM) | Ratio [12]: 16; Ratio [13]: 4; Ratio [14]: 4; Ratio [15]: 8; viability at 12.5 ug/ml [17]: > 90%; viability at 50 ug/ml [18]: 70%; log(activity) [19]: 2.5; log(activity) [20]: 3.5; inhibition at 2 µg/mL [21]: 53.9%; fold change (FC) [22]: 2.5; Activity [23]: Active; Activity [24]: Active; K [25]: 1.01 10^5L/mol; Activity [26]: Active |
| CCc1cnc(N2CCN(c3cc4c(cc3F)c(=O)c(C(=O)O)cn4C3CC3)CC2)nc1 | 128 (≈ 293 µM) | 64 (≈ 146 µM) | 1 (≈ 2.29 µM) | 8 (≈ 18.3 µM) | 64 (≈ 146 µM) | 256 (≈ 585 µM) | 8 (≈ 18.3 µM) | 4 (≈ 9.14 µM) | 4 (≈ 9.14 µM) | 64 (≈ 146 µM) | 64 (≈ 146 µM) | – | MIC [27]: 2 µg/mL (≈ 4.57 µM) |
| O=C(O)c1cn(C2CC2)c2cc(N3CCN(c4ncccn4)CC3)c(F)cc2c1=O | 16 (≈ 39.1 µM) | 2 (≈ 4.88 µM) | 4 (≈ 9.77 µM) | 64 (≈ 156 µM) | 32 (≈ 78.2 µM) | 64 (≈ 156 µM) | 8 (≈ 19.5 µM) | 1 (≈ 2.44 µM) | 8 (≈ 19.5 µM) | 32 (≈ 78.2 µM) | > 256 | 1 (≈ 2.44 µM) | viability at 12.5 ug/ml [17]: > 90%; viability at 50 ug/ml [18]: 70% |
| COc1cnc(N2CCN(c3cc4c(cc3F)c(=O)c(C(=O)O)cn4C3CC3)CC2)nc1 | 32 (≈ 72.8 µM) | 32 (≈ 72.8 µM) | 256 (≈ 583 µM) | 8 (≈ 18.2 µM) | 2 (≈ 4.55 µM) | 16 (≈ 36.4 µM) | 64 (≈ 146 µM) | 4 (≈ 9.1 µM) | 64 (≈ 146 µM) | 32 (≈ 72.8 µM) | 1 (≈ 2.28 µM) | – | MIC [28]: 2 µg/mL (≈ 4.55 µM); MIC [27]: 2 µg/mL (≈ 4.55 µM) |
| O=C(O)c1cn(C2CC2)c2cc(N3CCN(c4nccc(C(F)(F)F)n4)CC3)c(F)cc2c1=O | 64 (≈ 134 µM) | 8 (≈ 16.8 µM) | 128 (≈ 268 µM) | 128 (≈ 268 µM) | 64 (≈ 134 µM) | 128 (≈ 268 µM) | 128 (≈ 268 µM) | 32 (≈ 67 µM) | 64 (≈ 134 µM) | 128 (≈ 268 µM) | > 256 | – | – |
| O=C(O)c1cn(C2CC2)c2cc(N3CCN(c4ncc(F)cn4)CC3)c(F)cc2c1=O | 1 (≈ 2.34 µM) | 8 (≈ 18.7 µM) | 8 (≈ 18.7 µM) | 8 (≈ 18.7 µM) | 32 (≈ 74.9 µM) | 128 (≈ 299 µM) | 128 (≈ 299 µM) | 8 (≈ 18.7 µM) | 64 (≈ 150 µM) | 256 (≈ 599 µM) | > 256 | – | Ratio [29]: 8; Ratio [30]: 2 |
| CCn1cc(C(=O)O)c(=O)c2cc(F)c(N3CCN(c4ncc(C)cn4)CC3)cc21 | 8 (≈ 19.4 µM) | 2 (≈ 4.86 µM) | 4 (≈ 9.72 µM) | 64 (≈ 156 µM) | 4 (≈ 9.72 µM) | 2 (≈ 4.86 µM) | 16 (≈ 38.9 µM) | 2 (≈ 4.86 µM) | 4 (≈ 9.72 µM) | 128 (≈ 311 µM) | 128 (≈ 311 µM) | 2 (≈ 4.86 µM) | – |
| OC(Cn1cncn1)(Cn1cncn1)c1ccc(F)cc1F [FLUCONAZOLE] | – | – | – | – | – | – | – | – | – | – | – | 256 (≈ 836 µM) | – |
| O=C(O)c1cn(C2CC2)c2cc(N3CCNCC3)c(F)cc2c1=O [CIPROFLOXACIN] | 2 (≈ 6.04 µM) | 1 (≈ 3.02 µM) | 2 (≈ 6.04 µM) | 2 (≈ 6.04 µM) | 0.5 (≈ 1.51 µM) | 2 (≈ 6.04 µM) | – | – | – | 1 (≈ 3.02 µM) | – | – | – |
